From patent publication US20050244964A1, “Production of neural progenitor cells” (priority 2002, published 2005)

Key:
Human ES cells = test: TH+ cell immunostaining of adhered human ES cell embryoid bodies; format: cell-based; details: for formation of TH+ cells (in words): human ES embryoid bodies adhered and differentiated
Method: Collagenase/trypsin passaged ES cells were prepared as a single cell suspension and seeded at a density of 150 cells/μl in low attachment TC dishes (Costar). Cell aggregates were split 1:3 at day 2 and possibly at day 3 if required. Cultures were feed daily for 9 days and on day 9 bodies were transferred to poly-L-ornithine/laminin coated 24 well trays in 0.5 ml of medium if adhesive culture was to be conducted. Another 0.5 ml media was added to each well after 24 hours incubation. Adhered cultures or suspension cultures were fed daily for a further 8 days.
Embryoid bodies or neurospheres/aggregates are allowed to settle onto a coated surface to allow differentiation to occur (4 to 8 days). The coating can be on a plastic surface in either a tray or a coated coverslip.
The ability of basic media with supplements (DMEM +N2 or ITSS) to promote neural differentiation of hES cells was compared with medium that included F12: (DMEM:F12 (1:1) +N2 or ITSS)
Trypsinised Human ES cells were seeded at approximately 10 to 20 cells/μl of media into 10 ml of neurosphere media (DMEM:F12, 10 μg/ml heparin (SIGMA), 1/50 B27(GIBCO), 1/100 pen/strep, 1/100 ITSS) in a T75 culture flask. 10 ng/ml FGF2 was optionally added but the culture medium was preferably mitogen-free (no FGF2). Cultures were maintained in the media for 9 days after which the embryoid bodies were optionally transferred to poly-L-ornithine/laminin plates and cultured in the same media for a further 6 days. The embryoid bodies so formed (EB^15) whether from adherent or suspension culture, were then triturated to near single cell form and used for either transplantation or for the formation of neurospheres/cell reaggregates.
Example 5 was repeated utilising human ES cells and a minimal media consisting of DMEM and 100 μM L-proline as outlined in the schematic of FIG. 12. Results were similar to those described in Example 5.

mouse ES cells = test: Neural versus non-neural differentiation and neural complexity scoring of mouse ES cell embryoid bodies; format: cell-based; details: RA doses 1 μM and 10 nM compared with 100 nM
From the text: FIG. 2A is a graph that illustrates the level of neural differentiation when retinoic acid and MEDII are and are not present. The first column (ICb−RA) used a standard media (ICb, see Example 2), where a high percentage of non-neural tissue (scored as beating muscle) was observed. […] The third column used a 50% MEDII conditioned media but without RA supplementation. […] The fourth column used 50% MEDII supplemented with RA.
FIG. 2B is similar to FIG. 2A except the level of neural complexity was scored. A score of 1 to 3 was assigned depending upon the neuronal complexity (number of neurites and networking emanating from the body), with a score of 3 for the most complex.
Single cell suspensions of mouse ES cells were cultured for 4 days in standard culture media (ICb) or in the presence of 50% MEDII. The standard conditioning media (ICb) contains 90 ml DMEM, 10 ml of foetal calf serum, 1 ml glutamine (0.1M stock at 1/100 dilution) and 100 ul of β-Mercaptoethanol (0.1M stock at 1/1000 dilution). The culture process involved media changes on days 2 and 4 involving a ½ splitting of the cell aggregates. […] This media change occurred every day for three days (i.e to EBM^7). By the end of this period the morphological differences in treatment when supplemented with combinations of 50% MEDII and/or RA were apparent. […]

Molecule	formation of TH+ cells (in words) (Human ES cells)	proportion of TH+ cells (Human ES cells; human ES embryoid bodies, 9 days suspension then adherent culture on laminin, with N2 or ITSS, L-proline 100 μM in DMEM)	uniformity of RA effect on embryoid bodies (mouse ES cells)
O=C(O)[C@@H]1CCCN1 [L-proline]	high numbers of TH+cells	~50%	–
CC1=C(/C=C/C(C)=C/C=C/C(C)=C/C(=O)O)C(C)(C)CCC1 [RA, (all-E)-3,7-dimethyl-9-(2,6,6-trimethyl-1-cyclohexen-1-yl)-2,4,6,8-nonatetraenoic acid]	–	–	not as uniform as seen with 100 nM RA
FGF2: fibroblast growth factor	little impact on the generation of TH+ cells	–	–
